Activity calls are given as the source filed them.

These results are taken from ChEMBL document CHEMBL1201862, “PubChem BioAssay data set” (2004).

Type in all cases: functional
For assay [1], the target named is T1, Sentrin-specific protease 8 (Homo sapiens, UniProt Q96LD8).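 Also: luminescence read-out of SENP8 inhibition, dose-response confirmation following an ultra-high-throughput screen.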
T1 sequence (Q96LD8 whole entry): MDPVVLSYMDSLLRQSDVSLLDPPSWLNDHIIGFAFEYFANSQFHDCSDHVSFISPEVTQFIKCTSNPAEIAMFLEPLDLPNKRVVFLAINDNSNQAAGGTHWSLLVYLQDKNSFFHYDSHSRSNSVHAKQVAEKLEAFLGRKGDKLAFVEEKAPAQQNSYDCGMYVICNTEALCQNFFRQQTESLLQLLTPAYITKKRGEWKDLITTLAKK

Assay [2] has as its target T2, Sentrin-specific protease 7 (Homo sapiens, UniProt Q9BQF6).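 Also: Luminescence-based dose-response confirmation of ultra-high-throughput screening hits, measuring inhibition of SENP7.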
T2 sequence (Q9BQF6 whole entry): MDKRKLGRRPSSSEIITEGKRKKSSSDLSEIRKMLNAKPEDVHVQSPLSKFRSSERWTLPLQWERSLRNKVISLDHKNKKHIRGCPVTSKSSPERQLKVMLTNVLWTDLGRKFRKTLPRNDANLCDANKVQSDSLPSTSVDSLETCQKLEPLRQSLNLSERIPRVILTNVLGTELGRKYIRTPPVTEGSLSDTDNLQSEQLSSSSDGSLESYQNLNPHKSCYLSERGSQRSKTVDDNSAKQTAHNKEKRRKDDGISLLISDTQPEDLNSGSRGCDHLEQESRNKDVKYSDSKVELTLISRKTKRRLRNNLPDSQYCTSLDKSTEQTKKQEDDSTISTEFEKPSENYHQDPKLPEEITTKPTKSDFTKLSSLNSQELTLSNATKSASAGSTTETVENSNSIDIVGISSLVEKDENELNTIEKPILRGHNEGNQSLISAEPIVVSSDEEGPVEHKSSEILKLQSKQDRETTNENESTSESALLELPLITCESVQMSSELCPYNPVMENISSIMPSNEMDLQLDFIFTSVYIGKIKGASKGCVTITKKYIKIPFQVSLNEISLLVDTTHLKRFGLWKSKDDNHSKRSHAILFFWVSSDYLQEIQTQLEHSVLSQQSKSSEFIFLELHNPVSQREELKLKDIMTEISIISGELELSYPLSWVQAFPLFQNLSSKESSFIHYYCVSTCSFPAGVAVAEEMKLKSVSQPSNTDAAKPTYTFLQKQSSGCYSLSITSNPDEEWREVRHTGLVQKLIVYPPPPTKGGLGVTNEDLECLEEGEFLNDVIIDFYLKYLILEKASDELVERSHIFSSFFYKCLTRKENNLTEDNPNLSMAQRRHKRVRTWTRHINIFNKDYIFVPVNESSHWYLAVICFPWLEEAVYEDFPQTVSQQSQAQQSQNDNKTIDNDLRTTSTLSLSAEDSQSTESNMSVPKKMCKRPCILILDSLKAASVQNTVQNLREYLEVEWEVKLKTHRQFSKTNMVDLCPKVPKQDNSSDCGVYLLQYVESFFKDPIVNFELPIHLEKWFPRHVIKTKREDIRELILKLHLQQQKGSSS

The target of the next assay is T3, Protein RecA (Mycobacterium tuberculosis, UniProt P9WHJ3).
T3 sequence (P9WHJ3 whole entry): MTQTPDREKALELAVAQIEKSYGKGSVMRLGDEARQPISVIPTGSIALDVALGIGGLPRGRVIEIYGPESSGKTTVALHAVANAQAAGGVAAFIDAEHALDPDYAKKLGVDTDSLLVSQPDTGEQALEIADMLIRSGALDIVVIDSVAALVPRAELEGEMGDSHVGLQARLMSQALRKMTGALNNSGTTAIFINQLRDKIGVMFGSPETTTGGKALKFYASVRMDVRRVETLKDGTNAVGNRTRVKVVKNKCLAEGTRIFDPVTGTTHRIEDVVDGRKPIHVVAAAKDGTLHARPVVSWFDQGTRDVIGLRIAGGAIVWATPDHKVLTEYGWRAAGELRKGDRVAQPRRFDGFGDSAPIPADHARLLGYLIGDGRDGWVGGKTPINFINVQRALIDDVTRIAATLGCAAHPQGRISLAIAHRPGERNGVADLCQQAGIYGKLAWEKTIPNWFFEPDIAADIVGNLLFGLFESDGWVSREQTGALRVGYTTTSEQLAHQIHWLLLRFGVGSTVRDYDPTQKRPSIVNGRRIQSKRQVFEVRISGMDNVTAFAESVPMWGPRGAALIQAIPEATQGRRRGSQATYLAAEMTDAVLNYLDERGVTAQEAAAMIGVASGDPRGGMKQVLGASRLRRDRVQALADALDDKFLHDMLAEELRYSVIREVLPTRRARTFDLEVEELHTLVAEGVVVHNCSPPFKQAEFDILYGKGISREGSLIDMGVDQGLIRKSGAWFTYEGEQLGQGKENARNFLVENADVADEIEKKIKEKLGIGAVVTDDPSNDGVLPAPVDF
As to the kind of experiment: Fluorescence Cell-Free Homogeneous Dose Retest to Identify Inhibitors of RecA-Intein Splicing Activity. [Related pubchem assays (depositor defined):AID2097, AID2223, AID489010, AID492950].

The target of assay [3] is T4, Replicative DNA helicase DnaB (Mycobacterium tuberculosis, UniProt P9WMR3).
T4 sequence (P9WMR3 whole entry): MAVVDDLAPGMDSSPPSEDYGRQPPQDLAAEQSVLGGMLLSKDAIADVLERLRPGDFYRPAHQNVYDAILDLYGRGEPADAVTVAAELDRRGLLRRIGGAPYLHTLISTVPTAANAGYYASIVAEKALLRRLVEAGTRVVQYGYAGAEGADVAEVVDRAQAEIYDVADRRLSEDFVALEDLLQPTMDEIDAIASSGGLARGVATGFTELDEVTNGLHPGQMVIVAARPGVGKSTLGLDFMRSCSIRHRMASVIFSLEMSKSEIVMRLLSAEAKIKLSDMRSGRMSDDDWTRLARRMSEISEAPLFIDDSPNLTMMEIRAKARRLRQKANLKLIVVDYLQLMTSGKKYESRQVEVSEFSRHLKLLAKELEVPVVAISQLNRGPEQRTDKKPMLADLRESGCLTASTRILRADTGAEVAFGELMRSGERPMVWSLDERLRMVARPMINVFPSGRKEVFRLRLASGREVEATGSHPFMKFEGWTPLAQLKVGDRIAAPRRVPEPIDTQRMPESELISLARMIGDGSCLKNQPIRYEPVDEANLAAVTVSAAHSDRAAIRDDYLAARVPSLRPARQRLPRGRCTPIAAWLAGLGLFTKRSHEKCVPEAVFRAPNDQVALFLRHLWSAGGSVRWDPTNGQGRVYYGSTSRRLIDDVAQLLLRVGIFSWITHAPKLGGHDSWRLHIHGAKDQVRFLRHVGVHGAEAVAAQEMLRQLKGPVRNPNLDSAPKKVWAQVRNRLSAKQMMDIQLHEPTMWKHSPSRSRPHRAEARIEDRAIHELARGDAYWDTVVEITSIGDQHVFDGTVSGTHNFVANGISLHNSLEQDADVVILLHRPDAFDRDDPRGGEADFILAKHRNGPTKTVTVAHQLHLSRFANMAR
As to the kind of experiment: DnaB intein splicing inhibitors, dose response, biochemical, cell-free fluorescence (AID 449749).

On to `Cc1ccc(C(=O)NNc2cc(N3CCCC3)nc(N3CCCC3)n2)cc1`, for which the IC50 in assay [1] is 4.6 µM (active); in assay [2], 1.74 µM (active).

Turning to `Cc1cc(/C=C2\SC(=S)N(C)C2=O)c(C)n1-c1ccc(O)cc1`, the figures for the IC50 in assay [1] and in assay [2] were 8.79 µM (active) and 5.42 µM (active), respectively.

Consider `COC(=O)c1cccc(-c2ccc(C(c3c(C)n[nH]c3O)c3c(C)n[nH]c3O)o2)c1`, for which, on Protein RecA, the EC50 was 175 nM (active). In assay [3], the AC50 is 398 nM (active).

`O=C1/C(=N\c2cccc(O)c2)C(N2CCCCC2)=C(O)c2ccccc21`: the EC50 on Protein RecA was 364 nM (active). Further, the AC50 in assay [3] is 5580 nM (active).

Usually IC50 stands for the concentration that inhibits the measured activity by half. What is called EC50 is the concentration that produces a half-maximal response. The AC50 is the midpoint of the concentration-response curve, whichever way the signal moves.
